Source: PubChem BioAssay AID1918934 (Molecular Pharmacology Branch, DTP, NCI, 2023)
Several values for one entry are separate records, joined by “and”; a condition that tells them apart may be missing. Equal entries are not always repeated. Each block holds one compound with its values, some of them ahead of it.

Tested on: 292921-168-R-J2-PDC complex spheroid viability
Assay: Anticancer human tumor 292921-168-R-J2-PDC patient-derived pancreatic carcinoma cell line growth inhibition
Details: for viability, T/C: stronger effect = lower value
Description: Multicellular complex tumor spheroid response to LSD1 Inhibitor Iadademstat in combination with a variety of drugs and investigational agents in selected tumor cell lines
The current study was undertaken to assess response to LSD1 inhibitors in combination with standard-of-care drugs and investigational agents in solid tumor complex spheroid models as well as in the K-562 leukemia. Complex spheroids include a stromal component modeled by human endothelial cells (HUVEC) and fibroblasts modeled by human mesenchymal stem cells (MSCs). The concentration ranges selected for each drug and investigational agent were based upon clinically achievable concentrations if the clinical Cmax of the agent was known.
Compounds. The drugs and investigational agents used in this study are listed on Table 1. All of the agents used, including staurosporine (NSC755774) and gemcitabine (NSC613327), were obtained from the Developmental Therapeutics Program, NCI. FDA-approved anticancer drugs are available from the NCI at http://dtp.nci.nih.gov/branches/dscb/oncology_drugset_explanation.html. Drugs and investigational agents were >95% pure by proton nuclear magnetic resonance (NMR) and liquid chromatography/mass spectrometry (LC/MS). Stock solutions were prepared at 400x in DMSO, stored at -70 degrees C, and diluted in fresh medium prior to their use. The final concentration of DMSO in cell culture wells never exceeded 0.25% (v/v). The FDA-approved anticancer drug set is available from the Developmental Therapeutics Program at https://dtp.cancer.gov/organization/dscb/obtaining/available_plates.htm. All drugs and investigational agents were tested over a range starting from a high concentration at or near the clinical Cmax and decreasing in half-log increments. If the clinical Cmax for an agent had not been determined, the highest concentration tested was 10 microM.
Cell Lines. The patient-derived cancer cell (PDC) lines: 292921-168-R-J2-PDC, K24384-001-R-PDC, and 521955-158-R2-J5-PDC pancreatic carcinomas, 556581-035-R-J1 ovarian carcinoma, 324938-238-R-J1-PDC, 855422-203-R-J1-PDC and 883617-216-R-J1-PDC urothelial bladder carcinomas, 743489-274-T-PDC renal cell carcinoma, 138582-R-J1 Merkel cell tumor, K60290-347-R-J1 and K57222-313-R-J1-PDC glioblastomas, 653999-131-R-J2-PDC, LG0703-F948-PDC, and 349418-098-R-PDC non-small cell lung carcinomas, 885512-296-R-J2-PDC, 171881-019-R-J1-PDC breast carcinomas and 186277-243-T-J2-PDC and 233499-124-R-J2-PDC colon carcinomas were obtained from the NCI Patient-Derived Models Repository (PDMR, https://pdmr.cancer.gov). The established cell lines NCI/ADR-RES (RRID:CVCL_14520 and OVCAR-5 (RRID:CVCL_1628) ovarian carcinomas, 786-O (RRID:CVCL_1051) and A498 (RRID:CVCL_A498) renal cell carcinoma, NCI-H211 (ATCC, cat. CRL-5824; RRID:CVCL_1529), NCI-H196 (ATCC, cat. CRL-5823, RRID:CVCL_1509), SW 1271 (ATCC, cat. CRL-2177, RRID:CVCL_1716) and NCI-H1876 (ATCC, cat. CRL-5902, RRID:CVCL_1503) small cell lung carcinomas, MDA-MB-231 (RRID:CVCL_0062) and MDA-MB-468 (RRID:CVCL_0419)breast carcinomas (10-12). Pooled donor human umbilical vein endothelial cells (HUVEC, Lonza, cat. CC-2519) and human mesenchymal stem cells (hMSC, Lonza, cat. PT-2501) were purchased from Lonza (Walkersville, MD).
Cell Culture. All cells were maintained in an incubator at 37 degrees C and 5% CO2 with 95% humidity. The PDC lines were cultured according to standard operating procedures established by the NCI PDMR (https://pdmr.cancer.gov). Briefly all PDCs were thawed and cultured in Matrigel-coated flasks prepared with a working solution of 1X Ham's F-12 nutrient mix, without supplementation (Invitrogen, Waltham, MA, cat. 11765054), 100 U/mL penicillin-streptomycin (Invitrogen, cat. 15140122), and 2.5% Matrigel (Corning Inc., Corning, NY, cat. 354248) for the first three passages. […]

[1] = curve of first compound, second compound 0.1 µM
[2] = curve of first compound, second compound 0.316 µM
[3] = curve of first compound, second compound 1 µM
[4] = curve of first compound, second compound 3.16 µM
[5] = curve of first compound, second compound 10 µM
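Also: seven day compound exposure before luminescent viability read.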
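For viability, T/C in this document: 100% = DMSO vehicle control wells.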

Structure (SMILES): CC(C)c1c(-c2ccccc2)nc2c(C#N)c[nH]n2c1=O + NC1CC1c1ccc(-c2cccc(O)c2)cc1
IC50 [1]: > 10 µM | IC50 [2]: > 10 µM | IC50 [3]: > 10 µM | IC50 [4]: > 10 µM | IC50 [5]: > 10 µM | viability, T/C (second compound 0.1 µM, first compound 0.0316 µM): 79.9% | viability, T/C (second compound 0.1 µM, first compound 0.1 µM): 84% | viability, T/C (second compound 0.1 µM, first compound 0.316 µM): 82% | viability, T/C (second compound 0.1 µM, first compound 1 µM): 70.7% | viability, T/C (second compound 0.1 µM, first compound 3.16 µM): 78.4% | viability, T/C (second compound 0.1 µM, first compound 10 µM): 66% | viability, T/C (second compound 0.316 µM, first compound 0.0316 µM): 81.7% | viability, T/C (second compound 0.316 µM, first compound 0.1 µM): 73% | viability, T/C (second compound 0.316 µM, first compound 0.316 µM): 80.7% | viability, T/C (second compound 0.316 µM, first compound 1 µM): 69.5% | viability, T/C (second compound 0.316 µM, first compound 3.16 µM): 71.4% | viability, T/C (second compound 0.316 µM, first compound 10 µM): 60.4% | viability, T/C (second compound 1 µM, first compound 0.0316 µM): 71.8% | viability, T/C (second compound 1 µM, first compound 0.1 µM): 68.9% | viability, T/C (second compound 1 µM, first compound 0.316 µM): 66.8% | viability, T/C (second compound 1 µM, first compound 1 µM): 66.2% | viability, T/C (second compound 1 µM, first compound 3.16 µM): 61.1% | viability, T/C (second compound 1 µM, first compound 10 µM): 55.7% | viability, T/C (second compound 3.16 µM, first compound 0.0316 µM): 58.6% | viability, T/C (second compound 3.16 µM, first compound 0.1 µM): 65.3% | viability, T/C (second compound 3.16 µM, first compound 0.316 µM): 64.4% | viability, T/C (second compound 3.16 µM, first compound 1 µM): 57.9% | viability, T/C (second compound 3.16 µM, first compound 3.16 µM): 52.2% | viability, T/C (second compound 3.16 µM, first compound 10 µM): 59.6% | viability, T/C (second compound 10 µM, first compound 0.0316 µM): 58.1% | viability, T/C (second compound 10 µM, first compound 0.1 µM): 53.2% | viability, T/C (second compound 10 µM, first compound 0.316 µM): 58.4% | viability, T/C (second compound 10 µM, first compound 1 µM): 53.7% | viability, T/C (second compound 10 µM, first compound 3.16 µM): 49.8% | viability, T/C (second compound 10 µM, first compound 10 µM): 52.2%

IC50 (curve of compound): 9.28 µM and 7.49 µM
Structure (SMILES): O=C(c1cc(Cc2n[nH]c(=O)c3ccccc23)ccc1F)N1CCN(C(=O)C2CC2)CC1
viability, T/C (compound 0.0316 µM): 106% and 100% | viability, T/C (compound 0.1 µM): 98.8% and 100% | viability, T/C (compound 0.316 µM): 98.5% and 99.6% | viability, T/C (compound 1 µM): 95.4% and 85.9% | viability, T/C (compound 3.16 µM): 74.9% and 73% | viability, T/C (compound 10 µM): 48.1% and 42.4%

Structure (SMILES): Nc1ccccc1NC(=O)c1ccc(CNC(=O)OCc2cccnc2)cc1 + NC1CCC(NC2CC2c2ccccc2)CC1
IC50 [1]: 0.0287 µM | IC50 [2]: 0.0151 µM | IC50 [3]: < 0.00949 µM | IC50 [4]: 0.0131 µM | IC50 [5]: < 0.00949 µM | viability, T/C (second compound 0.1 µM, first compound 0.00949 µM): 61.3% | viability, T/C (second compound 0.1 µM, first compound 0.03 µM): 48.3% | viability, T/C (second compound 0.1 µM, first compound 0.0949 µM): 34.6% | viability, T/C (second compound 0.1 µM, first compound 0.3 µM): 20.5% | viability, T/C (second compound 0.1 µM, first compound 0.949 µM): 3.31% | viability, T/C (second compound 0.1 µM, first compound 3 µM): 0.22% | viability, T/C (second compound 0.316 µM, first compound 0.00949 µM): 53.1% | viability, T/C (second compound 0.316 µM, first compound 0.03 µM): 45.2% | viability, T/C (second compound 0.316 µM, first compound 0.0949 µM): 34.6% | viability, T/C (second compound 0.316 µM, first compound 0.3 µM): 18.8% | viability, T/C (second compound 0.316 µM, first compound 0.949 µM): 3.86% | viability, T/C (second compound 0.316 µM, first compound 3 µM): 0.24% | viability, T/C (second compound 1 µM, first compound 0.00949 µM): 50.8% | viability, T/C (second compound 1 µM, first compound 0.03 µM): 39.9% | viability, T/C (second compound 1 µM, first compound 0.0949 µM): 33.4% | viability, T/C (second compound 1 µM, first compound 0.3 µM): 20.6% | viability, T/C (second compound 1 µM, first compound 0.949 µM): 3.16% | viability, T/C (second compound 1 µM, first compound 3 µM): 0.22% | viability, T/C (second compound 3.16 µM, first compound 0.00949 µM): 52.9% | viability, T/C (second compound 3.16 µM, first compound 0.03 µM): 43% | viability, T/C (second compound 3.16 µM, first compound 0.0949 µM): 27.2% | viability, T/C (second compound 3.16 µM, first compound 0.3 µM): 16.3% | viability, T/C (second compound 3.16 µM, first compound 0.949 µM): 2.26% | viability, T/C (second compound 3.16 µM, first compound 3 µM): 0.38% | viability, T/C (second compound 10 µM, first compound 0.00949 µM): 42.5% | viability, T/C (second compound 10 µM, first compound 0.03 µM): 39.5% | viability, T/C (second compound 10 µM, first compound 0.0949 µM): 26.8% | viability, T/C (second compound 10 µM, first compound 0.3 µM): 14.2% | viability, T/C (second compound 10 µM, first compound 0.949 µM): 0.79% | viability, T/C (second compound 10 µM, first compound 3 µM): 0.3%
